Test results from ChEMBL document CHEMBL3804813, “Discovery and optimization of new benzofuran derivatives against p53-independent malignant cancer cells through inhibition of HIF-1 pathway” (Bioorg Med Chem Lett, 2016).
The source made the active and inactive calls. No cut-off for these calls is given here.

How the values were obtained:
MCF7 [1] = experiment: Cytotoxicity against human MCF7 cells co-transfected with hypoxia reporter plasmid p(HRE)3-Luc at 20 uM; assay type: cell-based; details: mcf7, 20 µM
[2] = Antiproliferative activity against human HCT116 cells expressing wild type p53 assessed as growth inhibition after 72 hrs by MTT assay; assay type: functional, cell-based; details: HCT-116, 72 h
MCF7 [3] = experiment: Antiproliferative activity against human MCF7 cells assessed as growth inhibition after 72 hrs by MTT assay; assay type: functional, cell-based; details: MCF7, 72 h
[4] = Antiproliferative activity against human MDA-MB-435S cells assessed as growth inhibition after 72 hrs by MTT assay; assay type: functional, cell-based
[5] = target: Hypoxia-inducible factor 1-alpha (Homo sapiens) (UniProt Q16665); experiment: Inhibition of HIF-1 (unknown origin) expressed in human MCF7 cells co-transfected with hypoxia reporter plasmid p(HRE)3-Luc at 10 uM measured under hypoxia condition after 24 hrs by dual-luciferase reporter assay; assay type: cell-based
Sequence of Hypoxia-inducible factor 1-alpha (Homo sapiens) (Q16665 whole entry, looked up): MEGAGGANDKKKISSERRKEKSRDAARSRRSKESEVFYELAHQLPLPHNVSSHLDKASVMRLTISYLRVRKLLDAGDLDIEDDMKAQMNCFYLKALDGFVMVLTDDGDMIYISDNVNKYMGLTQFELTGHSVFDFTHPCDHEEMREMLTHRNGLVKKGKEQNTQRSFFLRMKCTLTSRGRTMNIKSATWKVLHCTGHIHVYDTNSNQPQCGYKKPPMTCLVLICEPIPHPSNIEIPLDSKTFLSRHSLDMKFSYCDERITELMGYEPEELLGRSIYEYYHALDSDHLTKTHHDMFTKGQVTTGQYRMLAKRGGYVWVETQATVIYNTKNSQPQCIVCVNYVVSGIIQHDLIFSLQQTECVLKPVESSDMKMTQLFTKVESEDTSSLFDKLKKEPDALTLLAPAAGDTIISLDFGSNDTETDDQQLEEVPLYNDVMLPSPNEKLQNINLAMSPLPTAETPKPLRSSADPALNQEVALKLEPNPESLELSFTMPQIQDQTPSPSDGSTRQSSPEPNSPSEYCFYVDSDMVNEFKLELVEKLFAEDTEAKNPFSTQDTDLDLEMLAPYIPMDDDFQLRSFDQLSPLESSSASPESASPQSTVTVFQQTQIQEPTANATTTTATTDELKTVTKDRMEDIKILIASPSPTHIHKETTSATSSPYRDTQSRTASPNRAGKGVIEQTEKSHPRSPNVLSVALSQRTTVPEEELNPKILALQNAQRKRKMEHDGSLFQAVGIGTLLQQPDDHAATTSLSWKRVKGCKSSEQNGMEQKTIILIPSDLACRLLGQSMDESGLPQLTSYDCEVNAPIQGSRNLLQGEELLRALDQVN

[6] = Antiproliferative activity against human p53-null HCT116 cells assessed as growth inhibition after 72 hrs by MTT assay; assay type: functional, cell-based; details: HCT-116, 72 h
HCT-116 [7] = experiment: Induction of apoptosis in human p53-null HCT116 -/- cells assessed as late apoptotic cells after 48 hrs by Annexin V-FITC/propidium iodide staining based flow cytometry; assay type: functional, cell-based
HCT-116 [8] = experiment: Induction of apoptosis in human p53-null HCT116 -/- cells assessed as necrotic cells at 20 uM after 48 hrs by Annexin V-FITC/propidium iodide staining based flow cytometry (reference value: 4.67%); assay type: functional
HCT-116 [9] = experiment: Induction of apoptosis in human p53-null HCT116 -/- cells assessed as early apoptotic cells at 10 uM after 48 hrs by Annexin V-FITC/propidium iodide staining based flow cytometry (reference value: 6.96%); assay type: functional
HCT-116 [10] = experiment: Induction of apoptosis in human p53-null HCT116 -/- cells assessed as viable cells at 20 uM after 48 hrs by Annexin V-FITC/propidium iodide staining based flow cytometry (reference value: 85.26%); assay type: functional; details: HCT-116, 48 h, read-out: Activity
HCT-116 [11] = experiment: Induction of apoptosis in human p53-null HCT116 -/- cells assessed as late apoptotic cells at 20 uM after 48 hrs by Annexin V-FITC/propidium iodide staining based flow cytometry ( Rvb = 3.11%); assay type: functional
[12] = target: Hypoxia-inducible factor 1-alpha (Homo sapiens) (UniProt Q16665); experiment: Inhibition of HIF-1 (unknown origin) expressed in human MCF7 cells co-transfected with hypoxia reporter plasmid p(HRE)3-Luc at 20 uM measured under hypoxia condition after 24 hrs by dual-luciferase reporter assay; assay type: cell-based
[13] = Cell cycle arrest in human p53-null HCT116 -/- cells assessed as accumulation at S-phase at 10 uM after 12 hrs by propidium iodide staining based flow cytometry (reference value: 69.57%); assay type: functional; details: HCT-116
[14] = Cell cycle arrest in human p53-null HCT116 -/- cells assessed as accumulation at G1-phase at 20 uM after 12 hrs by propidium iodide staining based flow cytometry (reference value: 27.78%); assay type: functional; details: HCT-116
HCT-116 [15] = experiment: Induction of apoptosis in human p53-null HCT116 -/- cells assessed as necrotic cells at 10 uM after 48 hrs by Annexin V-FITC/propidium iodide staining based flow cytometry (reference value: 4.67%); assay type: functional
[16] = Cell cycle arrest in human p53-null HCT116 -/- cells assessed as accumulation at S-phase at 5 uM after 12 hrs by propidium iodide staining based flow cytometry (reference value: 69.57%); assay type: functional; details: HCT-116
HCT-116 [17] = experiment: Induction of apoptosis in human p53-null HCT116 -/- cells assessed as viable cells at 10 uM after 48 hrs by Annexin V-FITC/propidium iodide staining based flow cytometry (reference value: 85.26%); assay type: functional; details: HCT-116, 48 h, read-out: Activity
HCT-116 [18] = experiment: Induction of apoptosis in human p53-null HCT116 -/- cells assessed as necrotic cells at 5 uM after 48 hrs by Annexin V-FITC/propidium iodide staining based flow cytometry (reference value: 4.67%); assay type: functional
HCT-116 [19] = experiment: Induction of apoptosis in human p53-null HCT116 -/- cells assessed as late apoptotic cells at 10 uM after 48 hrs by Annexin V-FITC/propidium iodide staining based flow cytometry (reference value: 3.11%); assay type: functional
HCT-116 [20] = experiment: Induction of apoptosis in human p53-null HCT116 -/- cells assessed as early apoptotic cells at 20 uM after 48 hrs by Annexin V-FITC/propidium iodide staining based flow cytometry (reference value: 6.96%); assay type: functional
HCT-116 [21] = experiment: Induction of apoptosis in human p53-null HCT116 -/- cells assessed as early apoptotic cells at 5 uM after 48 hrs by Annexin V-FITC/propidium iodide staining based flow cytometry (reference value: 6.96%); assay type: functional
[22] = Cell cycle arrest in human p53-null HCT116 -/- cells assessed as accumulation at S-phase at 20 uM after 12 hrs by propidium iodide staining based flow cytometry (reference value: 69.57%); assay type: functional; details: HCT-116
[23] = Cell cycle arrest in human p53-null HCT116 -/- cells assessed as accumulation at G2-phase at 10 uM after 12 hrs by propidium iodide staining based flow cytometry (reference value: 2.35%); assay type: functional; details: HCT-116
[24] = Cell cycle arrest in human p53-null HCT116 -/- cells assessed as accumulation at G2-phase at 20 uM after 12 hrs by propidium iodide staining based flow cytometry (reference value: 2.35%); assay type: functional; details: HCT-116
[25] = Cell cycle arrest in human p53-null HCT116 -/- cells assessed as accumulation at G1-phase at 10 uM after 12 hrs by propidium iodide staining based flow cytometry (reference value: 27.78%); assay type: functional; details: HCT-116
[26] = Cell cycle arrest in human p53-null HCT116 -/- cells assessed as accumulation at G2-phase at 5 uM after 12 hrs by propidium iodide staining based flow cytometry (reference value: 2.35%); assay type: functional; details: HCT-116
[27] = target: Hypoxia-inducible factor 1-alpha (Homo sapiens) (UniProt Q16665); experiment: Inhibition of HIF1 in human MCF7 cells assessed as reduction in VEGF mRNA expression after 24 hrs under hypoxia condition by real-time PCR analysis; assay type: cell-based
HCT-116 [28] = experiment: Induction of apoptosis in human p53-null HCT116 -/- cells assessed as early apoptotic cells after 48 hrs by Annexin V-FITC/propidium iodide staining based flow cytometry; assay type: functional, cell-based
[29] = Cell cycle arrest in human p53-null HCT116 -/- cells assessed as accumulation at G1-phase at 5 uM after 12 hrs by propidium iodide staining based flow cytometry (reference value: 27.78%); assay type: functional; details: HCT-116
HCT-116 [30] = experiment: Induction of apoptosis in human p53-null HCT116 -/- cells assessed as viable cells at 5 uM after 48 hrs by Annexin V-FITC/propidium iodide staining based flow cytometry (reference value: 85.26%); assay type: functional; details: HCT-116, 48 h, read-out: Activity
HCT-116 [31] = experiment: Induction of apoptosis in human p53-null HCT116 -/- cells assessed as late apoptotic cells at 5 uM after 48 hrs by Annexin V-FITC/propidium iodide staining based flow cytometry (reference value: 3.11%); assay type: functional
[32] = Decrease in procaspase-9 expression level in human p53-null HCT116 -/- cells at 1 to 20 uM after 24 hrs by western blot analysis; assay type: functional, cell-based; details: HCT-116
HCT-116 [33] = experiment: Induction of apoptosis in human p53-null HCT116 -/- cells assessed as morphological change at 5 to 20 uM after 48 hrs by Annexin V-FITC/propidium iodide staining based flow cytometry; assay type: functional, cell-based
[34] = Cell cycle arrest in human p53-null HCT116 -/- cells assessed as accumulation at G1-phase after 12 hrs by propidium iodide staining based flow cytometry; assay type: functional; details: HCT-116
[35] = Decrease in procaspase-3 expression level in human p53-null HCT116 -/- cells at 1 to 20 uM after 24 hrs by western blot analysis; assay type: functional, cell-based; details: HCT-116

With `CNCCNC(=O)c1oc2ccc(N(Cc3ccc(Cl)cc3)S(=O)(=O)c3ccc(Cl)cc3)cc2c1C` the Activity (MCF7 [1]) was “Toxic”, the IC50 [2] was 1810 nM and the IC50 (MCF7 [3]) was 5.67 µM. The IC50 [4] was 1.63 µM, the inhibition [5] was 22.2% and the IC50 [6] was 4.03 µM.
With `CNCCNC(=O)c1oc2ccc(N(Cc3ccccc3)S(=O)(=O)c3ccc(Cl)cc3)cc2c1C` the Activity (HCT-116 [7]) was “Dose-dependent effect”, the Activity (HCT-116 [8]) was 0.02% and the Activity (HCT-116 [9]) was 55.86%. The viability at 20 µM (HCT-116 [10]) was 3.07%, the Activity (HCT-116 [11]) was 34.63% and the IC50 [2] was 3000 nM. The inhibition [12] was 47.3%, the IC50 (MCF7 [3]) was 4.56 µM and the Activity [13] was 42.9%. The Activity [14] was 59.7%, the Activity (HCT-116 [15]) was 1.05% and the Activity [16] was 60.2%. For the same compound, the viability at 10 µM (HCT-116 [17]) was 28.1%, the Activity (HCT-116 [18]) was 0.5% and the Activity (HCT-116 [19]) was 14.99%. The Activity (HCT-116 [20]) was 62.28%, the Activity (HCT-116 [21]) was 15.42% and the Activity [22] was 32.2%. For the same compound, the Activity [23] was 4.26%, the Activity [24] was 8.1% and the Activity [25] was 52.8%. The Activity [26] was 3.6%, the IC50 [4] was 4.71 µM and the inhibition [27] was “Dose-dependent effect”. The Activity (HCT-116 [28]) was “Dose-dependent effect”, the Activity [29] was 36.2% and the IC50 [6] was 2.91 µM. The viability at 5 µM (HCT-116 [30]) was 77.3%, the Activity (HCT-116 [31]) was 6.74% and the inhibition [32] was “Active”. For the same compound, the Activity (HCT-116 [33]) was “Active”, the Activity [34] was “Dose-dependent effect” and the inhibition [35] was “Active”.
